From US20120060243A1, “Herbicide-Resistant AHAS-Mutants and Methods of Use” (priority 2008, published 2012)

How the values were obtained:
Format in all cases: in vivo, Brassica napus
[1] = tested on: PM1/PM2 (commercial two gene check); assay: Plant injury after herbicide spray, Table 3; settings: 3-4 leaf stage, 2 weeks after treatment, line PM1/PM2
Description: (§1) B. napus plants containing the double mutant were also tested for plant injury due to imidazolinone herbicide application. B. napus plants for lines BN02 (wild type), BnCL131A1 (AHAS III A122T:S653N double mutant), BnCL120C7 (AHAS III A122T single mutant), BnCL97 (AHAS III S653N single mutant), PM1/PM2 (commercial two gene check), PM1 (AHAS I S653N single mutant) and PM2 (AHAS III W574L single mutant) were grown from seed until 3-4 leaf stage then either left unsprayed or sprayed with 35, 70 or 210 g ai/ha imazamox supplemented with 0.5% v/v Merge. Herbicide injury was evaluated 2 weeks after treatment (DAT) on 8-24 plants per line using a 0 to 9 scale where 0 is no injury and 9 is plant death. The results are presented as mean injury±one standard error of the mean in Table 3 below. The results presented cover two independent plantings and sprays for all lines except BnCL97. The table also presents values for ±one standard error of the mean.

[2] = tested on: PM1 (AHAS I S653N single mutant); assay: Plant injury after herbicide spray, Table 3; settings: 3-4 leaf stage, 2 weeks after treatment, line PM1
Description: as §1

[3] = tested on: BnCL131A1 (AHAS III A122T:S653N double mutant); assay: Plant injury after herbicide spray, Table 3; settings: 3-4 leaf stage, 2 weeks after treatment, line BnCL131A1
Description: as §1

BN-02 (wild type) = assay: Plant injury after herbicide spray, Table 3; settings: 3-4 leaf stage, 2 weeks after treatment, line BN-02
Description: as §1

[4] = tested on: PM2 (AHAS III W574L single mutant); assay: Plant injury after herbicide spray, Table 3; settings: 3-4 leaf stage, 2 weeks after treatment, line PM2
Description: as §1

[5] = tested on: BnCL120C7 (AHAS III A122T single mutant); assay: Plant injury after herbicide spray, Table 3; settings: 3-4 leaf stage, 2 weeks after treatment, line BnCL120C7
Description: as §1

[6] = tested on: BnCL97 (AHAS III S653N single mutant); assay: Plant injury after herbicide spray, Table 3; settings: 3-4 leaf stage, 2 weeks after treatment, line BnCL97
Description: as §1

[7] = tested on: PM1 (AHASL1C-PM1), S653N (Ho); assay: Field trial crop phytotoxicity, Simcoe; settings: 18 Days After Treatment, line PM1 (AHASL1C-PM1); for Mean Percent Crop Phytotoxicity (% Crop Injury): field, 2-4 leaf stage
Text: (§2) Hand-crossed hybrids were produced in the greenhouse between two IMI-tolerant spring Brassica napus parental lines: “BnCL131A1” (homozygous for the A genome IMI-tolerant mutation AHASL1A-A122(At)T-S653(At)N) and “PM1PM2” (homozygous for the A genome AHAS-inhibitor tolerant mutation AHASL1A-W574(At)L (PM2) plus the C genome AHAS-inhibitor tolerant mutation AHASL1C-S653(At)N(PM1)). The resulting heterozygous hand-crossed hybrid line, “PM1PM2/BnCL131A 1” (heterozygous for the stacked mutations: AHASL1A-A122(At)T-S653(At)N, AHASL1A-W574(At)L (PM2), AHASL1C-S653(At)N(PM1)) was field tested together with lines each containing only one AHAS-inhibitor tolerant mutation (homozygous or heterozygous) and several spring Brassica napus checks.
(§3) The three repetition trial was conducted in Simcoe, N. Dak., and used a randomized split block design. The trial was designed to measure the percent phytotoxicity (% crop injury) of the different entries under 5 different imidazolinone herbicide treatment rates. Plants were sprayed at the 2-4 leaf stage at a volume of 100 liters/ha. The imidazolinone herbicide rates used were as follows (Imazamox=BEYOND™ 120 g/I LC (BAS 72001H); NIS=INDUCE™ 90 (90% non-ionic surfactant; Helena Chemical Co., Collierville, Tenn.):
(§4) Crop Injury Ratings were determined in the field by assessing each plot in the trial for the level of phytotoxicity (percent crop injury) on a scale from 0-100% at 18 days after treatment. Mean values for each entry across the three replications along with their statistical significance (ANOVA) are presented in Table 6 (Ho=homozygous; He=heterozygous). Each value presented in Table 6 is the mean of three replications.
(§5) The percent phytotoxicity (% crop injury) ratings were transposed into Herbicide Tolerance ratings by subtracting the percent crop injury rating (Table 6) for each line from 100% to obtain the percent herbicide tolerance (Table 7) (Ho=homozygous; He=heterozygous).

Bn WT 1 = assay: Field trial crop phytotoxicity, Simcoe; settings: 18 Days After Treatment, line Bn WT 1; for Mean Percent Crop Phytotoxicity (% Crop Injury): field, 2-4 leaf stage
Text: as §2, §3, §4, §5

Bn WT 2 = assay: Field trial crop phytotoxicity, Simcoe; settings: 18 Days After Treatment, line Bn WT 2; for Mean Percent Crop Phytotoxicity (% Crop Injury): field, 2-4 leaf stage
Text: as §2, §3, §4, §5

[8] = mean over 0, 35, 70, 140, 210 g ai/ha (N 15)

SMILES: COCc1cnc(C2=NC(C)(C(C)C)C(=O)N2)c(C(=O)O)c1 (stereo not drawn) [imazamox]
- Herbicide injury, mean ± one standard error of the mean, 0 to 9 scale (0 no injury, 9 plant death) ([1]; 35 g ai/ha + 0.5% v/v Merge): 1.21 ± 0.33
- Herbicide injury, mean ± one standard error of the mean, 0 to 9 scale (0 no injury, 9 plant death) ([1]; 70 g ai/ha + 0.5% v/v Merge): 4.13 ± 0.36
- Herbicide injury, mean ± one standard error of the mean, 0 to 9 scale (0 no injury, 9 plant death) ([1]; 210 g ai/ha + 0.5% v/v Merge): 4.93 ± 0.53
- Herbicide injury, mean ± one standard error of the mean, 0 to 9 scale (0 no injury, 9 plant death) ([2]; 35 g ai/ha + 0.5% v/v Merge): 7.22 ± 0.18
- Herbicide injury, mean ± one standard error of the mean, 0 to 9 scale (0 no injury, 9 plant death) ([2]; 70 g ai/ha + 0.5% v/v Merge): 8.61 ± 0.12
- Herbicide injury, mean ± one standard error of the mean, 0 to 9 scale (0 no injury, 9 plant death) ([2]; 210 g ai/ha + 0.5% v/v Merge): 9.00 ± 0.00
- Herbicide injury, mean ± one standard error of the mean, 0 to 9 scale (0 no injury, 9 plant death) ([3]; 35 g ai/ha + 0.5% v/v Merge): 0.76 ± 0.33
- Herbicide injury, mean ± one standard error of the mean, 0 to 9 scale (0 no injury, 9 plant death) ([3]; 70 g ai/ha + 0.5% v/v Merge): 2.53 ± 0.24
- Herbicide injury, mean ± one standard error of the mean, 0 to 9 scale (0 no injury, 9 plant death) ([3]; 210 g ai/ha + 0.5% v/v Merge): 3.22 ± 0.33
- Herbicide injury, mean ± one standard error of the mean, 0 to 9 scale (0 no injury, 9 plant death) (BN-02 (wild type); 35 g ai/ha + 0.5% v/v Merge): 9.00 ± 0.00
- Herbicide injury, mean ± one standard error of the mean, 0 to 9 scale (0 no injury, 9 plant death) (BN-02 (wild type); 70 g ai/ha + 0.5% v/v Merge): 9.00 ± 0.00
- Herbicide injury, mean ± one standard error of the mean, 0 to 9 scale (0 no injury, 9 plant death) (BN-02 (wild type); 210 g ai/ha + 0.5% v/v Merge): 9.00 ± 0.00
- Herbicide injury, mean ± one standard error of the mean, 0 to 9 scale (0 no injury, 9 plant death) ([4]; 35 g ai/ha + 0.5% v/v Merge): 1.81 ± 0.25
- Herbicide injury, mean ± one standard error of the mean, 0 to 9 scale (0 no injury, 9 plant death) ([4]; 70 g ai/ha + 0.5% v/v Merge): 4.14 ± 0.23
- Herbicide injury, mean ± one standard error of the mean, 0 to 9 scale (0 no injury, 9 plant death) ([4]; 210 g ai/ha + 0.5% v/v Merge): 6.17 ± 0.22
- Herbicide injury, mean ± one standard error of the mean, 0 to 9 scale (0 no injury, 9 plant death) ([5]; 35 g ai/ha + 0.5% v/v Merge): 4.19 ± 0.39
- Herbicide injury, mean ± one standard error of the mean, 0 to 9 scale (0 no injury, 9 plant death) ([5]; 70 g ai/ha + 0.5% v/v Merge): 5.43 ± 0.24
- Herbicide injury, mean ± one standard error of the mean, 0 to 9 scale (0 no injury, 9 plant death) ([5]; 210 g ai/ha + 0.5% v/v Merge): 6.65 ± 0.30
- Herbicide injury, mean ± one standard error of the mean, 0 to 9 scale (0 no injury, 9 plant death) ([6]; 35 g ai/ha + 0.5% v/v Merge): 4.08 ± 0.15
- Herbicide injury, mean ± one standard error of the mean, 0 to 9 scale (0 no injury, 9 plant death) ([6]; 70 g ai/ha + 0.5% v/v Merge): 8.58 ± 0.15
- Herbicide injury, mean ± one standard error of the mean, 0 to 9 scale (0 no injury, 9 plant death) ([6]; 210 g ai/ha + 0.5% v/v Merge): 8.00 ± 0.23
- Mean Percent Crop Phytotoxicity (% Crop Injury) ([7]; 35 g ai/ha + 0.25% (v/v) NIS): 66.67%
- Mean Percent Herbicide Tolerance (100% minus percent crop injury) ([7]; 35 g ai/ha): 33.3%
- Mean Percent Crop Phytotoxicity (% Crop Injury) ([7]; 70 g ai/ha + 0.25% (v/v) NIS): 86.67%
- Mean Percent Herbicide Tolerance (100% minus percent crop injury) ([7]; 70 g ai/ha): 13.3%
- Mean Percent Crop Phytotoxicity (% Crop Injury) ([7]; 140 g ai/ha + 0.25% (v/v) NIS): 91.67%
- Mean Percent Herbicide Tolerance (100% minus percent crop injury) ([7]; 140 g ai/ha): 8.3%
- Mean Percent Crop Phytotoxicity (% Crop Injury) ([7]; 210 g ai/ha + 0.25% (v/v) NIS): 91.67%
- Mean Percent Herbicide Tolerance (100% minus percent crop injury) ([7]; 210 g ai/ha): 8.3%
- Mean Percent Crop Phytotoxicity (% Crop Injury), Mean over rates [7, 8]: 67.33%
- Mean Percent Crop Phytotoxicity (% Crop Injury) (Bn WT 1; 35 g ai/ha + 0.25% (v/v) NIS): 85%
- Mean Percent Herbicide Tolerance (100% minus percent crop injury) (Bn WT 1; 35 g ai/ha): 15.0%
- Mean Percent Crop Phytotoxicity (% Crop Injury) (Bn WT 1; 70 g ai/ha + 0.25% (v/v) NIS): 96.67%
- Mean Percent Herbicide Tolerance (100% minus percent crop injury) (Bn WT 1; 70 g ai/ha): 3.3%
- Mean Percent Crop Phytotoxicity (% Crop Injury) (Bn WT 1; 140 g ai/ha + 0.25% (v/v) NIS): 100%
- Mean Percent Herbicide Tolerance (100% minus percent crop injury) (Bn WT 1; 140 g ai/ha): 0.0%
- Mean Percent Crop Phytotoxicity (% Crop Injury) (Bn WT 1; 210 g ai/ha + 0.25% (v/v) NIS): 98.33%
- Mean Percent Herbicide Tolerance (100% minus percent crop injury) (Bn WT 1; 210 g ai/ha): 1.7%
- Mean Percent Crop Phytotoxicity (% Crop Injury), Mean over rates (Bn WT 1; [8]): 76%
- Mean Percent Crop Phytotoxicity (% Crop Injury) (Bn WT 2; 35 g ai/ha + 0.25% (v/v) NIS): 95%
- Mean Percent Herbicide Tolerance (100% minus percent crop injury) (Bn WT 2; 35 g ai/ha): 5.0%
- Mean Percent Crop Phytotoxicity (% Crop Injury) (Bn WT 2; 70 g ai/ha + 0.25% (v/v) NIS): 100%
- Mean Percent Herbicide Tolerance (100% minus percent crop injury) (Bn WT 2; 70 g ai/ha): 0.0%
- Mean Percent Crop Phytotoxicity (% Crop Injury) (Bn WT 2; 140 g ai/ha + 0.25% (v/v) NIS): 100%
- Mean Percent Herbicide Tolerance (100% minus percent crop injury) (Bn WT 2; 140 g ai/ha): 0.0%
- Mean Percent Crop Phytotoxicity (% Crop Injury) (Bn WT 2; 210 g ai/ha + 0.25% (v/v) NIS): 100%
- Mean Percent Herbicide Tolerance (100% minus percent crop injury) (Bn WT 2; 210 g ai/ha): 0.0%
- Mean Percent Crop Phytotoxicity (% Crop Injury), Mean over rates (Bn WT 2; [8]): 79%
